Reference: patent US9737563B2, “Magnesium compositions and uses thereof for neurological disorders” (Neurocentria, Inc., priority 2007, dated 2017)
Like-named read-outs stand apart in the source and are kept apart here.

Columns and labels:
AD mice = experiment: Morris water maze test, comparison with anti-AD drugs; assay type: in vivo; conditions: AD mice aged 13 months
Experimental: Two known anti-AD drugs named […] memantine were administered separately to the mice. For these experiments, mice were tested for effects on memory and learning using the Morris water maze test, essentially as described in the previous example.

[1] = Magnesium absorption rate in rats (metabolic cages, urine and feces magnesium by ICP-AES); conditions: Example 5, gluconate in skim milk or 5 weight percent lactose water, chloride in water
Experimental: Fifty 3-month old, male Sprague Dawley (SD) rats were divided into five groups of ten rats. Rats of this age and older are considered adult. Each of the rats was placed in a separate metabolic cage equipped with urine- and feces-collecting wells. All of the rats were maintained in a temperature-controlled room (22° C. to 25° C.) with a dark period from 08:00 pm to 08:00 am daily. From day 1 through day 3, each rat was fed daily 15 g of magnesium-free food and de-ionized water. […] The medium was skim milk for Composition 1 and Group 1, milk prepared from powdered milk, by diluting the powdered milk with water to obtain a composition like that of skim milk, for Composition 2 and Group 2, 1% milk cream in water for Composition 3 and Group 3, water comprising 5 weight percent lactose for Composition 4 and Group 4, and water for the Control Composition and Control Group. […] From day 11 through day 12, each rat was fed daily 15 g of magnesium-free food and de-ionized water.
From day 4 through day 10, urine from each rat was collected daily. The collected urine from each rat was then pooled together and the total volume of the pooled urine from each rat was recorded. The pooled urine from each rat, in an amount of […], was analyzed for magnesium content using an inductively coupled plasma-atomic emission spectrometer (ICP-AES). From day 5 to day 11, feces from each rat were collected daily. The collected feces from each rat were pooled together and the pooled feces were weighed and homogenized. The pooled feces from each rat, in an amount of 0.5 g, were analyzed for magnesium content using an ICP-AES.
A formula was used to calculate a magnesium absorption rate for each rat. The formula used was Y=AX−B, wherein X was the average total daily magnesium intake, Y was the average net daily amount of magnesium absorbed, as calculated by X minus the average daily amount of magnesium excreted from feces, B was the average daily amount of magnesium excreted from feces when the magnesium intake was zero, and the slope A represented the magnesium absorption rate. Data points (X, Y) associated with each rat in each group often rats, with the exception of the best points and the worst points, were plotted. The value of A, the magnesium absorption rate, associated with each of Groups 1-4, and thus with each of the Compositions 1-4, was then obtained using linear regression. The value of A, the magnesium absorption rate, associated with the Control Group, and thus with the Control Composition, was also obtained using linear regression, and relabeled as A0. […]

aging rats = system: aging rats
Experimental: Three groups of animals (young, aging, and magnesium-treated aging rats) were used. […] Spatial working memory was assessed using a T-maze non-matching-to-place task. […] Spatial working memory was first assessed on an elevated T-maze. The maze was located 1 m above the floor in a well lit laboratory that contained various prominent distal extra-maze cues. The rats were handled and habituated to the maze for 10 days, and to Froot Loop® cereal over several days before the test. Each trial consisted of a sample run and a choice run, with delay intervals of 15 s during the training and the pattern completion tasks. On the sample run, the rats were forced either left or right by the presence of the block, according to a pseudorandom sequence (with equal numbers of left and right turns per session, and with no more than two consecutive turns in the same direction). A cereal reward was available in the food well at the end of the arm. The block was then removed, and the rat was allowed a free choice of either arm. The animal was rewarded for choosing the previously unvisited arm. Rats were run one trial at a time with an inter-trial interval of 10 min. Each daily session consisted of 6 trials.
The rats were tested for 10 consecutive days on a rewarded forced-choice alternation task. The percentage of correct choices (alternations) was recorded for each daily session. […] Then, spatial working memory was tested by a gradual increase of the delay between the sample and the choice trials (FIG. 10, right panel).

[2] = system: aging rats (12-14 months old); conditions: for novel object exploration preference: single training
Experimental: In this example, the effect of magnesium supplementation on recognition memory was tested. Three groups of rats were used in these experiments: 1) young rats (three months old); aging rats (12-14 months old), and; 3) magnesium-treated aging rats (12-14 months old, diet supplemented with 6 mg/kg MgCl2 from 8 months of age). We used experimentally naive, female, Sprague-Dawley young […], aging (12-14 month old) and […] rats (Charles River) at the beginning of the behavior experiments. They were housed two per cage with continuous access to food and water under a 12:12 light-dark cycle, with light onset at 8:00 a.m. […] All experiments involving animals were approved by the Massachusetts Institute of Technology's and Tsinghua University Committees on Animal Care.
The three groups of rats were tested for recognition memory using an object recognition test with a single exposure to the object during training. The task is based on the natural tendency of rodents to explore new objects and tests the animals' memory capacity for distinguishing novel versus familiar objects.
Briefly, the rats were first individually habituated to the personnel and then to open-field arena during 2 weeks. The rats were then allowed to explore two identical objects placed into the arena at fixed locations until they had accumulated 30 s of total inspection time (where this is defined as active exploration, sniffing or touching the object with the nose and/or forepaws) or for a maximum of 20 min. The rat was returned to the arena for the retention test and allowed to explore for another 30 sec. The retention intervals were 10 min and 24 hours. Objects were cleaned thoroughly between trials with 20% ethanol solution to ensure the absence of olfactory cues. The particular objects for a given trial were randomly determined, but each object was used for only one trial per rat. Memory of the familiar object is associated with increased exploration of the new object and an exploration index (% correct) is calculated as new object inspection time/30. […]

diabetic patients = conditions: nearly 1 g of magnesium daily for 1 month; cited from earlier work
[3] = system: young (9-month old) and aged (25-month old) rats; conditions: food containing 2% for 8 days, cited from earlier work
[4] = relatively high magnesium dosage
[5] = relatively low magnesium dosage

Compound: COc1cc2c(cc1OC)C(=O)C(CC1CCN(Cc3ccccc3)CC1)C2 (stereo not drawn) [aricept]
- reducing the effects of AD on learning capacity (AD mice): both being better at reducing the effects of AD on learning capacity than aricept

Compound: [Cl-].[Cl-].[Mg+2] [magnesium chloride]
- magnesium absorption rate [1, 4]: less desirable
- magnesium absorption rate [1, 5]: suitable, but lower
- spatial working memory with increased delay (aging rats; 2 and 5 min delays, p<0.05): significantly enhanced the performance of the aging rats at 2 and 5 min delays
- percentage of correct choices during training (aging rats; 15 sec delay, versus untreated aging rats, p<0.05): performed significantly better from their first trials
- asymptotic choice accuracy level (aging rats; after 8 days of training, all three groups): ~94%
- novel object exploration preference ([2]; 10 minute retention interval, aging rats, 6 mg/kg from 8 months of age): preferentially explored the novel object to the same extent as young rats
- novel object exploration preference ([2]; 24 hours retention interval): lose there ability to distinguish novel versus familiar objects
- novel object preference ([2]; two training sessions separated by 10 minutes, 24-hour retention interval): retained a high level of preference

Compound: [O]=[Mg] [magnesium oxide]
- metabolic control (diabetic patients): only minor improvement in metabolic control
- side-effect [3]: diarrhea and weight loss
- cognitive function ([3]; gain transient): some sign of improvement of cognitive function

Compound: CC12CC3CC(C)(C1)CC(N)(C3)C2 [memantine]
- reducing the effects of AD on learning capacity (AD mice): better at reducing the effects of AD on learning capacity than aricept

Compound: magnesium gluconate
- magnesium absorption rate [1, 4]: suitably close to those associated with the lower dosage compositions
- magnesium absorption rate [1, 5]: suitable magnesium absorption rates
